Laboratory results as given in patent US20240352409A1, “CELL SEEDING AGENT AND SUBSTRATE FOR CELL TRANSPLANTATION USE” (CELLUSION INC., priority 2021, published 2024).
“Also recorded” adds a separate entry of the source.

Tests used:
[1] = tested on: iPS cell-derived corneal endothelial substitute cells; assay: Influence of ROCK inhibitor on tight junction formation (ZO-1 expression) during passage operation in differentiation induction; assay type: cell-based; conditions: 10 μM Y-27632 during passage operation; FIG. 1
Experimental: An influence of a ROCK inhibitor during the passage operation in the differentiation induction step of iPS cell-derived corneal endothelial substitute cells was investigated. According to Example 1 and Experimental Example 2 of Patent Literature 3 (10 μM Y-27632 was used as ROCK inhibitor instead of fasudil), the expression of ZO-1 was investigated.

[2] = tested on: iPS cells (FF-101s04 strain); assay: Engraftment of iPS cells seeded in phenolphthalein derivative-added cell seeding agents (differentiation induction, fixed or changed seeding density); assay type: cell-based; conditions: derivative 0.22 mM, day 7; for cell engraftment at specified seeding density: seeded at 1.04×10^4 cells/cm^2; for cell engraftment at seeding number lower than specified density: seeding density lower than 1.04×10^4 cells/cm^2
Experimental: T12.5 flask (Corning Incorporated/353107) was coated with iMatrix511 (MATRIXOME, Inc./892005) at a concentration of 6 μg/mL. iPS cells (FF-101s04 strain) were suspended in AK03N+Y medium at a density of 8.0×10^3 cells/cm^2, and were seeded into the T12.5 flask. Culture was started in a CO2 incubator at 37° C., and the medium was replaced the next day with AK03N medium not containing Y-27632. After a gap of 2 days, medium exchange was performed for 2 consecutive days, and passage was performed on the 6th day of culture.
A T25 flask (Sumitomo Bakelite Co., Ltd./MS-23050) was coated with iMatrix511 (MATRIXOME, Inc./892005) at a concentration of 6 μg/mL. iPS cells were suspended in AK03N+Y medium at a density of 2.2×10^3 cells/cm^2, and were seeded into the T25 flask. Culture was started in a CO2 incubator at 37° C., and the medium was replaced the next day with AK03N medium not containing Y-27632. After a gap of 2 days, medium exchange was performed for 2 consecutive days, and passage was performed on the 6th day of culture.
DMEM/F12 non phenol red (Thermo Fisher Scientific, Inc./11039-021) was used as the basal medium, and a phenol red-free corneal endothelial substitute cell induction medium was prepared (hereinafter also to be referred to as phenol red-free medium in this Example). To the basal medium (500 mL) were added, as additives, ITS-Supplement (Ventria/777ITS091), IGF1 (OrphanPacific, Inc.; Somazone for injection/858100075, 1 mg/mL), LIF (FUJIFILM Wako Pure Chemical Corporation/125-06661), IL-6 (Miltenyi Biotec/170-076-161), IL-11 (Pepro tech/AF-200-11), TNFα (Miltenyi Biotec/170-076-178), and water-soluble HYDROCORTONE Injection (Nichi-Iko Pharmaceutical Co., Ltd./27126333) described in the following Table 1.
The phenolphthalein derivatives shown in the following Table 2, B to D, were dissolved in advance in ethanol to a concentration of 6.6×10^−6 mol/mL. 30 mL each of the phenol red-free corneal endothelial substitute cell induction medium prepared in the above-mentioned 2. was dispensed into four 50 mL tubes, and 40.5 μL of A phenolsulfonphthalein injection 0.6% (AFP) was added to one of the four tubes. Furthermore, 100 μL of B cresol red solution with adjusted concentration was added to one of the remaining three tubes. Similarly, C thymol blue solution and D bromocresol purple solution were respectively added to the remaining two tubes. A total of four different phenolphthalein derivative-containing media were prepared and used as phenolphthalein derivative-added cell seeding agents. Each seeding agent was adjusted to have a phenolphthalein derivative concentration of 0.22 mM. […]

[3] = tested on: Macaca fascicularis bullous keratopathy model; assay: Transplantation of corneal endothelial substitute cell suspension into anterior chamber of bullous keratopathy model; assay type: in vivo
Experimental: A cell suspension of iPS cell-derived corneal endothelial substitute cells (8×10^5 cells/160 μl) obtained in Example 1 was transplanted to the anterior chamber of a Macaca fascicularis bullous keratopathy model (conducted by SHIN NIPPON BIOMEDICAL LABORATORIES, LTD.). Two types of substrates for transplantation (containing insulin, insulin-like growth factor, and the like) were prepared: one with and one without the addition of phenol red. The corneal endothelial substitute cell suspension was transplanted into the anterior chamber of the eye by the following procedure. • (1) Corneal endothelial substitute cells suspended in two types of substrates for transplantation, with and without phenol red added, were injected into the anterior chamber using a 27-gauge syringe. • (2) Macaca fascicularis was placed face down for 3 hr. • (3) After 28 days of observation, the eyeballs were collected and observed macroscopically and microscopically. Formation of a corneal endothelial substitute cell layer and corneal thickness were measured for the transplanted eye. Corneal thickness was measured using a corneal thickness measuring device (Tomey Corporation; SP-100).

[4] = tested on: iPS cell-derived corneal endothelial substitute cells; assay: Influence of phenol red in cell seeding agent on engraftment, recovered cell number and survival rate in differentiation induction step; assay type: cell-based; conditions: with vs without phenol red
Experimental: When induction into corneal endothelial substitute cell was started, iPS cells recovered using TrypLE-Select (Thermo Fisher Scientific) were suspended in a phenol red-added cell seeding agent or phenol red no-addition cell seeding agent. A 100 mm culture dish (Sumitomo Bakelite Co., Ltd.) was coated with iMatrix 511 at a concentration of 3 μg/ml, and iPS cells suspended in each cell seeding agent were seeded at a density of 1.0×10^4 cells/cm^2. Culture was started in a CO2 incubator at 37° C., and thereafter, the medium was replaced with phenol red-added corneal endothelial substitute cell induction medium or phenol red no-addition corneal endothelial substitute cell induction medium at a frequency of once every 2 to 3 days thereafter. Culture was performed for 14 days under the above-mentioned conditions in each medium for inducing corneal endothelial substitute cells. After 3, 5, and 7 days of culture, the state of the cells was confirmed under a microscope (FIG. 2A). After culturing for 14 days, for the groups in which cell engraftment was observed under a microscope, the cells were collected and the number of cells was counted. The cells were collected after removing the culture supernatant, washed twice using DPBS (−) (Thermo Fisher Scientific), detached using Accutase (Innovative Cell Technologies), and collected into a centrifuge tube. The cells collected into the centrifuge tube were separated by centrifugation, and after adjusting the cell concentration using a medium and the like, the cell concentration and survival rate were measured using an automatic cell counter (ChemoMetec) (FIG. 2B).

C[C@@H](N)[C@H]1CC[C@H](C(=O)Nc2ccncc2)CC1 [Y-27632]
cell transformation (epithelial-to-mesenchymal transition) [1]: causes transformation that appears to be epithelial-to-mesenchymal transition | formation of tight junction (expression of ZO-1) [1]: formation of tight junction was inhibited; also recorded: inhibits the formation of tight junction

Cc1cc(C2(c3cc(C)c(O)c(Br)c3)OS(=O)(=O)c3ccccc32)cc(Br)c1O [bromocresol purple]
cell engraftment at specified seeding density [2]: Engraftment was also confirmed

Cc1cc(C2(c3ccc(O)c(C)c3)OS(=O)(=O)c3ccccc32)ccc1O [cresol red]
cell engraftment at seeding number lower than specified density [2]: cell engraftment was confirmed

O=S1(=O)OC(c2ccc(O)cc2)(c2ccc(O)cc2)c2ccccc21 [phenol red, phenolsulfonphthalein]
engraftment and distribution of transplanted cells on posterior cornea ([3]; 8×10^5 cells/160 μl into anterior chamber, substrate with phenol red, 28 days observation, FIG. 4): engrafted on the posterior cornea and spread uniformly | corneal thickness ([3]; substrate for transplantation with phenol red, FIG. 3): a decrease in corneal thickness was observed; also recorded: corneal thickness decreased | corneal edema ([3]; substrate for transplantation with phenol red, judged from corneal thickness, FIG. 3): corneal edema was improved; also recorded: corneal edema-improving effect was observed | cell engraftment at seeding number lower than specified density [2]: cell engraftment was confirmed | engraftment of cells after seeding (microscope) ([4]; 3rd, 5th, 7th day of culture, seeded at 1.0×10^4 cells/cm^2, FIG. 2A): Engraftment was clearly better | number of recovered viable cells ([4]; day 14 of culture, FIG. 2B): clearly superior | survival rate ([4]; day 14 of culture, FIG. 2B): clearly superior

Cc1cc(O)c(C(C)C)cc1C1(c2cc(C(C)C)c(O)cc2C)OS(=O)(=O)c2ccccc21 [thymol blue]
cell engraftment at specified seeding density [2]: Engraftment was also confirmed
